Data reported in patent US6306636A, “Nucleic acid segments encoding wheat acetyl-CoA carboxylase” (Arch Development Corporation, priority 1997, dated 2001).

Key:
[1] = tested on: T1, wheat cytosolic ACCase expressed in yeast; test: In vitro inhibition of wheat cytosolic ACCase expressed in yeast (gel-filtered crude extract); assay type: biochemical
T1 construct: Full length cDNA encoding wheat cytosolic ACCase was assembled; made in house; host or cells: S. cerevisiae haploid gene-replacement strain MJ 1.12 (crude extract, Sephadex G50)
Description: (§1) Sethoxydim and Cethoxydim (CGA215684) were obtained from CIBA-GEIGY and haloxyfop was obtained from DowElanco. To measure inhibition in vivo, galactose-dependent strains were grown in YPR containing 0.01% galactose (to A600 of ~0.5) and then diluted (~100 fold) to the same initial density with fresh YPR medium containing 0.01% galactose and varying amounts of herbicide added as 100-fold concentrated stock solutions in DMSO. ACCase activity in vitro was measured using protein extracts prepared as described (Mitchell et al., 1993) from 25-50 ml cultures of yeast strains MJ 1.12 and MG 9.11 grown for 24-40 h. Cells were suspended in one volume of extraction buffer (0.3 M sorbitol, 0.1 M NaCl, 5 mM MgCl2, 10 mM Tris pH 7.4, supplemented with protease inhibitors: aprotinin (6.6 μ/mL), leupeptin (1.5 μ/mL), pepstatin A (3 μ/mL) and chymostatin (1 μg/mL), and vortexed with 2 volumes of glass beads for 5 min at 4° C. 1/200 volume of 100 mM ethanol solution of phenylmethylsulfonyl fluoride was added twice during extraction. The cell debris were removed by centrifugation and the supenatant (~0.5 ml) was loaded immediately on a 20 ml Sephadex G50 column equilibrated with 100 mM KCl, 20 mM Tris/HCl (pH 7.5), 20% glycerol, 7 mM β-mercaptoethanol. […] ACCase activity was measured as described before (Gornicki and Haselkorn, 1993) using aliquots of the column fractions. […]

[2] = tested on: strain MJ 1.12 expressing wheat cytosolic ACCase; test: In vivo growth inhibition of yeast gene-replacement strain expressing wheat cytosolic ACCase; assay type: cell-based, S. cerevisiae; conditions: for effect on growth of gene-replacement strain (in vivo): MJ 1.12, liquid culture, YPR medium with 0.01% galactose
Description: The yeast complex medium for vegetative growth contained 1% Bacto-yeast extract, 2% Bacto-peptone, 0.1% adenine sulfate and was supplemented with the following carbon sources: 2% Dextrose in YPD, 2% Raffinose in YPR, 2% galactose and 2% raffinose in YPRG. The yeast synthetic minimal medium (SD) contained 0.17% yeast nitrogen base, 0.5% ammonium sulfate, 2% dextrose, and was supplemented with various additives required for growth: adenine sulfate (10 mg/L), uracil (20 mg/L), histidine (20 mg/L), leucine (200 mg/L) and/or tryptophane (50 mg/L). The SRG medium is identical to SD, with dextrose replaced by 2% raffinose and 2% galactose. 2% bacto-agar was used in solid media. SPII (2% potassium acetate, supplemented with essential amino acids at 7.5 mg/L) and SPIII (0.1% bacto-yeast extract and 2% bacto-agar added to SPII) media for sporulation are described in (Klapholz and Esposito, 1982; Klapholz et al;. 1985). S. cerevisiae strain W303D-ACC1^ΔLEU2 was also obtained from Dr. S. D. Kohlwein. Yeast cells were transformed as described before (Chen et al., 1992) using Frozen-ELZ kit (Zymo Research, Orange Calif.) according to the manufacturer's protocol and transformants were selected using SD plates lacking a marker amino acid. Sporulation was induced in SPII or SPIII medium at 30° C. for 2-3 days. Dissection of asci was performed as described (Guthrie and Fink, 1991). YPD or YPRG plates were used for vegetative growth of ascospore clones following dissection. Galactose-dependent strains (MJ 6.8, 6.9, 1.12 and 1.13) were grown in YPRG medium and other strains in YPD medium, all at 30° C. To measure galactose induction, the strains were grown for ~24 h in YPR medium until all galactose was exhausted (growth of galactose-dependent strains ceased), and then diluted ~100 fold with YPR medium containing various amounts of galactose.
Sethoxydim and Cethoxydim (CGA215684) were obtained from CIBA-GEIGY and haloxyfop was obtained from DowElanco. To measure inhibition in vivo, galactose-dependent strains were grown in YPR containing 0.01% galactose (to A600 of ~0.5) and then diluted (~100 fold) to the same initial density with fresh YPR medium containing 0.01% galactose and varying amounts of herbicide added as 100-fold concentrated stock solutions in DMSO. ACCase activity in vitro was measured using protein extracts prepared as described (Mitchell et al., 1993) from 25-50 ml cultures of yeast strains MJ 1.12 and MG 9.11 grown for 24-40 h. Cells were suspended in one volume of extraction buffer (0.3 M sorbitol, 0.1 M NaCl, 5 mM MgCl2, 10 mM Tris pH 7.4, supplemented with protease inhibitors: aprotinin (6.6 μ/mL), leupeptin (1.5 μ/mL), pepstatin A (3 μ/mL) and chymostatin (1 μg/mL), and vortexed with 2 volumes of glass beads for 5 min at 4° C. 1/200 volume of 100 mM ethanol solution of phenylmethylsulfonyl fluoride was added twice during extraction. The cell debris were removed by centrifugation and the supenatant (~0.5 ml) was loaded immediately on a 20 ml Sephadex G50 column equilibrated with 100 mM KCl, 20 mM Tris/HCl (pH 7.5), 20% glycerol, 7 mM β-mercaptoethanol. Protein was eluted with the same buffer and stored at -70° C. ACCase activity was measured as described before (Gornicki and Haselkorn, 1993) using aliquots of the column fractions. Herbicides were added to the reaction mixtures (1/10 or 1/20 volume) as a solution in 0.25-0.75 M Tris-HCl, pH8.0 containing 25% DMSO. Wheat germ extract was purchased from Promega.

yeast ACCase = target: T2, yeast ACCase (Saccharomyces cerevisiae, UniProt Q00955); test: In vitro inhibition of yeast ACCase (gel-filtered crude extract); assay type: biochemical, S. cerevisiae
T2 construct: containing one copy of the yeast ACC1 gene (on the chromosome) and expressing ACCase under its own promoter; endogenous in cells; host or cells: S. cerevisiae haploid strain MJ 9.11 (W303D-derived), crude extract, Sephadex G50
Description: as §1

[3] = target: T3, wheat plastid ACCase (wheat germ extract) (Triticum aestivum, UniProt O48959); test: In vitro inhibition of ACCase in wheat germ extract; assay type: biochemical; conditions: wheat plastid enzyme in wheat germ extract
T3 construct: mixed homoeologues, some cytosolic ACCase present
Description: as §1

[4] = tested on: strain MJ 9.11 expressing yeast ACCase (ACC1); test: In vivo growth inhibition of yeast strain expressing yeast ACCase; assay type: cell-based, S. cerevisiae; conditions: MJ 9.11, 800 μM inhibitor
Description: The yeast complex medium for vegetative growth contained 1% Bacto-yeast extract, 2% Bacto-peptone, 0.1% adenine sulfate and was supplemented with the following carbon sources: 2% Dextrose in YPD, 2% Raffinose in YPR, 2% galactose and 2% raffinose in YPRG. The yeast synthetic minimal medium (SD) contained 0.17% yeast nitrogen base, 0.5% ammonium sulfate, 2% dextrose, and was supplemented with various additives required for growth: adenine sulfate (10 mg/L), uracil (20 mg/L), histidine (20 mg/L), leucine (200 mg/L) and/or tryptophane (50 mg/L). The SRG medium is identical to SD, with dextrose replaced by 2% raffinose and 2% galactose. 2% bacto-agar was used in solid media. SPII (2% potassium acetate, supplemented with essential amino acids at 7.5 mg/L) and SPIII (0.1% bacto-yeast extract and 2% bacto-agar added to SPII) media for sporulation are described in (Klapholz and Esposito, 1982; Klapholz et al;. 1985). […]
Sethoxydim and Cethoxydim (CGA215684) were obtained from CIBA-GEIGY and haloxyfop was obtained from DowElanco. […] ACCase activity in vitro was measured using protein extracts prepared as described (Mitchell et al., 1993) from 25-50 ml cultures of yeast strains MJ 1.12 and MG 9.11 grown for 24-40 h. […] ACCase activity was measured as described before (Gornicki and Haselkorn, 1993) using aliquots of the column fractions. […]

[5] = tested on: maize ACCase, first minor peak; conditions: 50 μM; first minor peak (Howard and Ridley, 1990); cited from earlier work
[6] = tested on: wheat seedling leaves (ACCase, fatty acid synthesis); test: In vivo incorporation of 14C-acetate into fatty acids in cut wheat seedling leaves; design: species or system wheat (Triticum aestivum cv. Era); conditions: Triticum aestivum; freshly cut wheat seedling leaves, 4-6 h; read-out: 50% inhibition of in vivo incorporation of 14C-acetate into fatty acids
Description: For the in vivo assay of ACCase activity, 2-week old seedlings of wheat (Triticum aestivum cv. Era) were cut about 1 cm below the first leaf and transferred to a 1.5 ml micro tube containing ^14 C-sodium acetate and haloxyfop (Tris salt) for 4-6 h. The leaves were then cut into small pieces and treated with 0.5 ml of 40% KOH for 1 h at 70° C., and then with 0.3 ml of H2 SO4 and 20 μl of 30% TCA on ice. Fatty acids were extracted with three 0.5 ml aliquots of petroleum ether. The organic phase was washed with 1 ml of water. Incorporation of ^14 C-acetate into fatty acids is expressed as the percentage of the total radioactivity taken up by the seedlings. present in the organic phase.

[7] = target: T4, enzyme from pea chloroplasts (ACCase) (Pisum sativum, UniProt P18823+Q41008); test: In vitro ACCase activity assay, pea chloroplast enzyme; assay type: biochemical; conditions: read-out: 50% inhibition of ACCase activity
T4 construct: the enzyme from pea chloroplasts is relatively resistant; from tissue; host or cells: pea chloroplasts
T4 sequence (P18823 1-590): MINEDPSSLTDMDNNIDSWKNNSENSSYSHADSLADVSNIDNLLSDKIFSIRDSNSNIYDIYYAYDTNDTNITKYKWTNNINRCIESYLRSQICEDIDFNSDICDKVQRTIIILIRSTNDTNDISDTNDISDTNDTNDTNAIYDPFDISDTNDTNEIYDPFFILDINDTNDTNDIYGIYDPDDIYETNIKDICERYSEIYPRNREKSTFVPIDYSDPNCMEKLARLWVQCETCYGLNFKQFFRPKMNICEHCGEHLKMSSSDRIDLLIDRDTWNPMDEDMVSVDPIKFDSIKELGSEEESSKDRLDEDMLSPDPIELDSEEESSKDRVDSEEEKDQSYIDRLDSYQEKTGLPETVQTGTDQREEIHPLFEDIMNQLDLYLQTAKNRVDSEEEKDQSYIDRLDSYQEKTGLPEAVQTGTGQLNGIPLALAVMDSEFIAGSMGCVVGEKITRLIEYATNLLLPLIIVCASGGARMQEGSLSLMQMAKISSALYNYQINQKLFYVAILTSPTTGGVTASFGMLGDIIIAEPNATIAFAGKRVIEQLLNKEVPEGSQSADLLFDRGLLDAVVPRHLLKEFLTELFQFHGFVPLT
T4 sequence (Q41008 51-875): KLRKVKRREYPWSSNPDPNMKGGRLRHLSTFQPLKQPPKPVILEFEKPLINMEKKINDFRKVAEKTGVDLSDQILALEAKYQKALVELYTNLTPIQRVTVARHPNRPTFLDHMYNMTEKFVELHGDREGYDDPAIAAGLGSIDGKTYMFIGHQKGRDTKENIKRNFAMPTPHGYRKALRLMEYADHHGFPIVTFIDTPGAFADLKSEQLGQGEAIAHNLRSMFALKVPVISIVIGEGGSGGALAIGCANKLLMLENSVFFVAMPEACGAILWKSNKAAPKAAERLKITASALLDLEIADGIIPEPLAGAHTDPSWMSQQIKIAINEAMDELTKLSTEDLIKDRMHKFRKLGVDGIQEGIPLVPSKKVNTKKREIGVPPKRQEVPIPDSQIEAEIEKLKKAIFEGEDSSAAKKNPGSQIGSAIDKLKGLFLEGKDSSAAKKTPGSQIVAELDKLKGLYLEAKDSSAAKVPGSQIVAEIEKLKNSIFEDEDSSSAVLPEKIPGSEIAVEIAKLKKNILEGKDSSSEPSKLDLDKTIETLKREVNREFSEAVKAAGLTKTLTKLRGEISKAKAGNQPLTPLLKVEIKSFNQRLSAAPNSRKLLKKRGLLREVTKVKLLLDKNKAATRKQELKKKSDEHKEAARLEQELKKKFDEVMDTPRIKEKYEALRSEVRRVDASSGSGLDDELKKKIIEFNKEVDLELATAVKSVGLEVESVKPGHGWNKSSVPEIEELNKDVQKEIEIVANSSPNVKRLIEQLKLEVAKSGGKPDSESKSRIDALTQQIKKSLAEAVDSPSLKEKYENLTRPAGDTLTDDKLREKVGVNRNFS

[8] = target: T3, wheat plastid ACCase (wheat germ extract); conditions: shown previously (Gornicki and Haselkorn, 1993); cited from earlier work

T3 sequence (O48959 1-2311): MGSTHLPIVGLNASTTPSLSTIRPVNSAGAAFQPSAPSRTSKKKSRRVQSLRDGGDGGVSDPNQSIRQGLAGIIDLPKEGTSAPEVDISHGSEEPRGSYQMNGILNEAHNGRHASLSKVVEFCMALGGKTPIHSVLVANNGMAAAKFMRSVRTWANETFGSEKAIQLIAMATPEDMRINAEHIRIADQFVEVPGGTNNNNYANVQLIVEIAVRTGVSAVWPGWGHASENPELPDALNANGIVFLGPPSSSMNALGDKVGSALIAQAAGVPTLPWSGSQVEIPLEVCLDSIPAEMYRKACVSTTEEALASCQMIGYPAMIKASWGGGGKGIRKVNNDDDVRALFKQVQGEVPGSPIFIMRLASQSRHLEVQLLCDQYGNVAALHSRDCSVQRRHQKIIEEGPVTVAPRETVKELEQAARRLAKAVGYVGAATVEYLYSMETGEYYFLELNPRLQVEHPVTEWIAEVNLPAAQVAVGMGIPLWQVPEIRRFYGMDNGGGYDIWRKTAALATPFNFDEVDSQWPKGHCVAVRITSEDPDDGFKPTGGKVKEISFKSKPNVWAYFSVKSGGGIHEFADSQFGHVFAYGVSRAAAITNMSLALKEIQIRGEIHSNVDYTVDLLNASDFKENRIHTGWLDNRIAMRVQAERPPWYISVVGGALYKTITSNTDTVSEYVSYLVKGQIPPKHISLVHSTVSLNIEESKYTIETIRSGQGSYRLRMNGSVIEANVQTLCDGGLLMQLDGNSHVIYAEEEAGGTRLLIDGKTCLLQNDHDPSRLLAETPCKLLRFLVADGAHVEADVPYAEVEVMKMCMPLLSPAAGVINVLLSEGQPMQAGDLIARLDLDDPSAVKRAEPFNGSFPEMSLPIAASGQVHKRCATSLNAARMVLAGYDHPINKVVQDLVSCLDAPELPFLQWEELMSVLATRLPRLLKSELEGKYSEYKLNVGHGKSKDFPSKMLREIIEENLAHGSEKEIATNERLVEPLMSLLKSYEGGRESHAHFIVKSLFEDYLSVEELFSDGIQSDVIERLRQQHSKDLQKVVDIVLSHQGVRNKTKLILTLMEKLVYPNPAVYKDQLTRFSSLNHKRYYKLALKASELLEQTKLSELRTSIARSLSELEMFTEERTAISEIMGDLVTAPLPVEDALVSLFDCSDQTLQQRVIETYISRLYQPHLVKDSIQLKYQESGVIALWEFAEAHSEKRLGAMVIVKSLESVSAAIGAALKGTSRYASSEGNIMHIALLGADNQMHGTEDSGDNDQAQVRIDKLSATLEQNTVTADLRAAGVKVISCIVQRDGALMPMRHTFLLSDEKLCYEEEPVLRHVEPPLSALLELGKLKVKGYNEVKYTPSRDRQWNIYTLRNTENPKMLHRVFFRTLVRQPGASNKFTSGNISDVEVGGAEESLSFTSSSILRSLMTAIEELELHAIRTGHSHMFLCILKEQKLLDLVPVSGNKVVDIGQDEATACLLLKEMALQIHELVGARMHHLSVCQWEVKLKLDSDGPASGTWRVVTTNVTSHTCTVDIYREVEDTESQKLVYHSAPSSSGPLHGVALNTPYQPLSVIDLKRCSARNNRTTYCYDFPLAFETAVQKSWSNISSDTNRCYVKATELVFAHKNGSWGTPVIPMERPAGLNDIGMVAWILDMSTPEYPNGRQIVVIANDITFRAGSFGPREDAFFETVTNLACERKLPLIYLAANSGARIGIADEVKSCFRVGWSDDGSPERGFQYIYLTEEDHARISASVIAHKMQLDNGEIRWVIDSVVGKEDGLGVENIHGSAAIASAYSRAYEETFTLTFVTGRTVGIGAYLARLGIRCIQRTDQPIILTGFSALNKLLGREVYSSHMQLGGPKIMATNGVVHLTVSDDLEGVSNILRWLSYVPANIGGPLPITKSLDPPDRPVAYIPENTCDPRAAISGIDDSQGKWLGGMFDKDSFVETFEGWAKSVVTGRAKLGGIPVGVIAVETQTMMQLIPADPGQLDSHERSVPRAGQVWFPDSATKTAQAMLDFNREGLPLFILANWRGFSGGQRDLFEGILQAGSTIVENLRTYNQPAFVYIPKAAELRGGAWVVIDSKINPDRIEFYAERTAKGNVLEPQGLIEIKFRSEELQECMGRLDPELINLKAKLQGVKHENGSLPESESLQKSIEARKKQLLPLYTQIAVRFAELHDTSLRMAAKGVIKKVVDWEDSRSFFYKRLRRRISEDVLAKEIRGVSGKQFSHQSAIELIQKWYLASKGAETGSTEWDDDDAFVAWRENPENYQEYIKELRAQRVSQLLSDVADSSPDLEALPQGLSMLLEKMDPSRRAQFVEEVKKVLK
T1 sequence (Q38970 whole entry): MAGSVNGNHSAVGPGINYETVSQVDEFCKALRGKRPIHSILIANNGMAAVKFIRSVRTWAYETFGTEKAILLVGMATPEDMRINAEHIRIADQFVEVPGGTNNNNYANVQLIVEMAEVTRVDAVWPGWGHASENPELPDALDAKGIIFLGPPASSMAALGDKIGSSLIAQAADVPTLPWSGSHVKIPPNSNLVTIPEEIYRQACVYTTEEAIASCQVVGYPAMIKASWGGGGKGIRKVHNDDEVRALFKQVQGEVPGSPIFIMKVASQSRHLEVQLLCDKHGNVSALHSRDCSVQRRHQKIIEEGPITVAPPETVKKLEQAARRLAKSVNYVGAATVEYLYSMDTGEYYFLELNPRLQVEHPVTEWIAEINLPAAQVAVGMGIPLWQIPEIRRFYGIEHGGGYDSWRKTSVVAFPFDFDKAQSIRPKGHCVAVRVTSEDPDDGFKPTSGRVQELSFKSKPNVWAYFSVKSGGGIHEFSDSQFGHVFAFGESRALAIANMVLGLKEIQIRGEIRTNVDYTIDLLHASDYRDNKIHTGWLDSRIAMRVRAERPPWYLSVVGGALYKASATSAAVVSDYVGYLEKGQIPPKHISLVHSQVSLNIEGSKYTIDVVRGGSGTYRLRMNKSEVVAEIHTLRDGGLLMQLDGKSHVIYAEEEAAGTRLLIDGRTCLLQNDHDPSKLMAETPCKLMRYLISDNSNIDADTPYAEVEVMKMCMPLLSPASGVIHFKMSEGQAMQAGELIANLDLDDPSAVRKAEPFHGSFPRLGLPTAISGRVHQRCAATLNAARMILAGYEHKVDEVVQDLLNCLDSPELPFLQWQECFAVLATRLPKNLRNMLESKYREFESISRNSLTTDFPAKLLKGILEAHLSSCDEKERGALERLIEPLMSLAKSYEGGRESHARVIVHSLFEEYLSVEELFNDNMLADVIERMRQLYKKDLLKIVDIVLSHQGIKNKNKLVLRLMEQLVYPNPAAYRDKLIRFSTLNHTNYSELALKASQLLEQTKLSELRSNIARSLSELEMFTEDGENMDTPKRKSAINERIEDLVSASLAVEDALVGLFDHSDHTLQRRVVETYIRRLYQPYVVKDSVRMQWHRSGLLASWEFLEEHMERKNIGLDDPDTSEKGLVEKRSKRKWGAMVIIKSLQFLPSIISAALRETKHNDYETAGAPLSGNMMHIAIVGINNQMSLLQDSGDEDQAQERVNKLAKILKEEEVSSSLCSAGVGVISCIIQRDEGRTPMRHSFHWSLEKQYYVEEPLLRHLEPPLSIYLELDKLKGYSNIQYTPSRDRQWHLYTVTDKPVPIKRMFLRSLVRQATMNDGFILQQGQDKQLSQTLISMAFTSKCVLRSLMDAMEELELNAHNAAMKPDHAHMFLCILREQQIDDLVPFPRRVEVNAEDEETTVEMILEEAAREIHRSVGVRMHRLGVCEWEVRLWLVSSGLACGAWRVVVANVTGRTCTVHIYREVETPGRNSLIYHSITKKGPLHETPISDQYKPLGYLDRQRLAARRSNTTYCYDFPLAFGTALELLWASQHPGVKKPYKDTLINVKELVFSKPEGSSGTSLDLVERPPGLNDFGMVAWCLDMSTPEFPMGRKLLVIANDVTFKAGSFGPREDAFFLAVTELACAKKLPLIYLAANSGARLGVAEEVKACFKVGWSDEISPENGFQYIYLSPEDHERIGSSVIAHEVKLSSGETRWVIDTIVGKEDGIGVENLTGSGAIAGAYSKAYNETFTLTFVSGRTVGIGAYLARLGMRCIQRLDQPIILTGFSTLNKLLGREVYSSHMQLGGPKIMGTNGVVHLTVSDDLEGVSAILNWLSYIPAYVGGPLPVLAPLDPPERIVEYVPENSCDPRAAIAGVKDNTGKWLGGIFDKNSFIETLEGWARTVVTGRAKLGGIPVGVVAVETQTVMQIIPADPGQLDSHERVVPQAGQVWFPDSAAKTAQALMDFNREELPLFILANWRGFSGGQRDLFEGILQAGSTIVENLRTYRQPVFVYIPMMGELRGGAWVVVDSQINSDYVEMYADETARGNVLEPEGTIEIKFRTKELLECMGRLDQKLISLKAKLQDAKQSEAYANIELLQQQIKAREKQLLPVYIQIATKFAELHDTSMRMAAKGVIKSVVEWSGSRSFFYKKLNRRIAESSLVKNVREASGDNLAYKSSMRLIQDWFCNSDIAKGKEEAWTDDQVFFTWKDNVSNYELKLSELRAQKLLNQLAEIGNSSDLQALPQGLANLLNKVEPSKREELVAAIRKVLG

| SMILES | in vitro inhibition of ACCase activity [1] | effect on growth of gene-replacement strain (in vivo) [2] | in vitro inhibition of ACCase activity (yeast ACCase) | in vitro inhibition of ACCase activity [3] | growth at 800 μM ([2]; MJ 1.12, 800 μM inhibitor) | IC50 ([2]; Saccharomyces cerevisiae, MJ 1.12, YPR medium with 0.01% galactose, A600 24 hrs after inoculation, read-out: 50% inhibition of growth) [µM] | growth at 800 μM [4] | inhibition of ACCase activity [5] | IC50 [6] [µM] | IC50 [7] [µM] | sensitivity of ACCase activity to inhibitor [8] |
| --- | --- | --- | --- | --- | --- | --- | --- | --- | --- | --- | --- |
| CCC/C(=N\OCC)C1=C(O)CC(CC(C)SCC)CC1=O (stereo not shown) [Sethoxydim] | does not inhibit | no effect | does not inhibit | weakest inhibitor | – | – | – | – | – | – | – |
| CCC(=NOCC=CCl)C1C(=O)CC(C2(SC)CC2)CC1=O (stereo not shown) [cethoxydim, Cethoxydim] | moderately inhibits | completely inhibits growth | although not completely resistant, is less sensitive | much stronger inhibitor | does not grow at all | ~20 | unaffected | – | – | – | – |
| CC(Oc1ccc(Oc2ccc(C(F)(F)F)cn2)cc1)C(=O)O (stereo not shown) [fiuazifop, fluazifop] | – | – | – | – | – | – | – | not inhibited | – | – | – |
| CC(Oc1ccc(Oc2ncc(C(F)(F)F)cc2Cl)cc1)C(=O)O (stereo not shown) [haloxyfop] | – | no effect | – | – | – | – | – | – | < 1 | > 50 | highly sensitive |
